{"source": "paper PMC7614683", "about": "“A small molecule PI3Kα activator for cardioprotection and neuroregeneration” (Nature, 2023)", "key": {"[1]": {"system": "A549 cells", "test": "pAKT S473 ELISA, A549", "type": "cell-based, human", "conditions": "15 min; 5-10 μM 1938", "experimental": "A549 cells were seeded at 50,000 cells per well in 96-well plates in DMEM (10% FBS + 1% P/S). The next day cells were washed once with PBS before addition of serum-free DMEM for 24 h. On the day of treatment, cells were incubated in fresh serum-free DMEM prior to treatment. Compounds solubilised to 10 mM in DMSO were diluted 1:3 in an 8-point concentration response curve in DMSO. Concentration response curves were diluted in serum-free DMEM by transfer into intermediate plates using a BRAVO liquid handler (Agilent). Intermediate plates were then used to treat cell plates using the BRAVO liquid handler. […] Cell plates were treated for 15 min at 37°C, 5% CO2 before being washed with ice-cold PBS and lysed in lysis buffer […] Systems #895561) and freezing at -80°C. Levels of pAKT^S473 were determined using the phospho-AKT (S473) pan-specific Duoset IC ELISA (R&D Systems #DY[…]) in 96-well white high-binding plates (Corning #3922) according to manufacturer's instructions. Endpoint luminescence was measured using a Sense (Hidex) platereader. […] Data were transformed and EC50 data were determined by variable slope (4 parameters) non-linear regression using Prism 7 (Graphpad)."}, "[2]": {"system": "A549 cells", "test": "pAKT S473 western blot / Wes, A549", "type": "cell-based, human", "experimental": "Unless otherwise indicated, western blotting was performed with ECL detection. For time course studies, A549 cells were seeded at 250,000 cells per well in 6-well plates in RPMI (10% FBS + 1 mM Na-Pyruvate + 1% P/S) and allowed to adhere overnight. The next day they were serum-starved for 4 h prior to treatment with 100 nM insulin or 5 μM 1938, for the indicated time (5 min to 48 h) at 37°C, 5% CO2. For 1938 titration assays in MEFs, cells were seeded at 150,000 cells per well in 6-well plates and allowed to adhere overnight. The next day they were serum-starved for 4 h prior to treatment with insulin (1 μM), 1938 (0.2 to 30 μM, final DMSO concentration of 1.5%) or inhibitors (final DMSO concentration of ≤1.5%) for 15 min at 37°C, 5% CO2. Cells were washed twice with cold PBS and lysed using cold RIPA buffer (25 mM Tris.HCl pH 7.6, 150 mM NaCl, 1% NP-40, 1% sodium deoxycholate, 0.1% SDS supplemented with protease/phosphatase inhibitor cocktail from Merck). To remove cell debris, homogenates were spun at 13,000 rpm for 15 min at 4°C and the supernatant fraction recovered. Protein concentration was determined by colorimetric assay (BCA assay, Promega). Protein extracts were resolved by SDS-PAGE, transferred to nitrocellulose membranes, and incubated overnight at 4°C with specific antibodies as follows: anti-vinculin (Sigma #V9131) and the following antibodies from Cell Signaling Technology (CST): pAKT-S473 (CST #9271), pS6-S240/244 (CST #2215), pPRAS40-T246 (CST #2640) and total S6 (CST #2317). Primary ntibodies were used at 1:1000 dilution except anti-vinculin (1:10000). Secondary antibodies are also from Cell Signalling Technology: Anti rabbit IgG, HRP linked Antibody (CST #7074S), Anti mouse IgG, HRP linked Antibody (CST #7076S). Raw and uncropped blots are shown in Supplementary Fig. 1.\nA549 cells were seeded at 200,000 cells per well in 24-well plates in DMEM (10% FBS + 1% P/S) and allowed to adhere overnight. The next day, cells were washed once with PBS before addition of serum-free DMEM for 24 h. […]"}, "[3]": {"system": "PI3Kα-WT MEFs", "test": "CellTiter-Glo cell assay, PI3Kα-WT MEFs", "type": "cell-based, mouse", "experimental": "MEFs were seeded at 5000 cells per well in 96-well plates in DMEM supplemented with 10% FBS and 1% P/S, and allowed to attach overnight. The next day, cells were serum starved for 4 h prior to compound treatment in fresh serum-free DMEM. Compounds solubilised in DMSO were diluted 1:2 in a 12-point concentration response curve in DMSO. Intermediate plates were prepared by transferring 4 μl of compounds in DMSO into 96 μl of serum-free DMEM media. This was then used to treat cell plates by transferring 12.5 μl of solution from the intermediate plate into 87.5 μl of serum-free DMEM in the cell plates. […] Cell plates were incubated for 24 h, 48 h or 72 h at 37°C, 5% CO2, followed by determination of cell survival using the CellTiter-Glo® reagent according to manufacturer’s instructions (Promega #G7571). Endpoint luminescence was measured using CLARIOstar (BMG). Compound data were analyzed using GraphPad Prism 8."}}, "data": [{"compound": "CCN1CCN(c2ccc(Nc3cc(Nc4cccc5c4N(C(C)=O)CC5)ccn3)cc2)CC1", "note": "[Compound 1938]", "values": [{"measurement": "pAKT^S473 generation", "setting": "[1]", "value": "~ 200 % of Emax of 1 μM insulin"}, {"measurement": "time of peak pAKT^S473 activation", "setting": "[2]; 1938 5 μM, A549 and MCF10A", "value": 30, "unit": "min"}, {"measurement": "time to induction of pAKT^S473", "setting": "[2]; 1938 5 μM, A549 and MCF10A", "value": 5, "unit": "min"}, {"measurement": "pAKT^S473 increase", "setting": "[2]; A549", "value": "BYL719-sensitive increase in pAKT^S473"}, {"measurement": "concentrations with a decrease in ATP levels (PI3Kα-independent effects)", "setting": "[3]; 24h", "value": "> 7.5", "unit": "µM"}, {"measurement": "concentration from which non-PI3Kα-dependent effects are observed", "setting": "[3]; 48h and 72h incubation, PI3Kα-WT and PI3Kα-KO MEFs", "value": "2 to 4", "unit": "µM"}, {"measurement": "EC50", "setting": "[3]; Mus musculus, 24h treatment, read-out: EC50 of increase in metabolic activity (ATP content)", "value": "~500", "unit": "nM"}]}]}
